Data: PMC7044277 (Nature Communications, 2020)
Several values for one entry are separate records, joined by “and”; a condition that tells them apart may be missing. Identical values can stand only once.

Tests used:
Format in all cases: cell-based
320 non-olfactory GPCRs [1] = target: T1, 320 non-olfactory GPCRs (Homo sapiens, UniProt P08912)
T1 construct: expressed in transfected cells; host or cells: HTLA cells

320 non-olfactory GPCRs [2] = target: 320 non-olfactory GPCRs (Homo sapiens, UniProt P25025)
320 non-olfactory GPCRs [3] = target: T2, 320 non-olfactory GPCRs (Homo sapiens, UniProt P32249)
T2 construct: expressed in transfected cells; host or cells: HTLA cells

320 non-olfactory GPCRs [4] = target: T3, 320 non-olfactory GPCRs (Homo sapiens, UniProt P48146); conditions: receptor NPBW2; replicate values, Fig_4g
T3 construct: expressed in transfected cells; host or cells: HTLA cells
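Throughout, for Fold of Basal: compound tested at 1 µM final concentration.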
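Throughout, for GPCRome agonism screen response: fold over basal response of each receptor without drug.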

T2 sequence (P32249 whole entry): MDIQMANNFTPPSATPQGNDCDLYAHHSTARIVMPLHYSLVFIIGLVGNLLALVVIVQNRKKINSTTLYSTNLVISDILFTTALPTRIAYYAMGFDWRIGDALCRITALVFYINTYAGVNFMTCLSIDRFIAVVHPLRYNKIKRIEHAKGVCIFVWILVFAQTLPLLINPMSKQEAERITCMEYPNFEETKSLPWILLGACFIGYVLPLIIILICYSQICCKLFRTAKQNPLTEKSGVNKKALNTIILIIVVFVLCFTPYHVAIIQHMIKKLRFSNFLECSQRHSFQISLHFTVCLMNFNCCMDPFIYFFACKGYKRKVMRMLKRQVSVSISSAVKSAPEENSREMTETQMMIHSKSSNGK
320 non-olfactory GPCRs (Homo sapiens, UniProt P25025), sequence (P25025 whole entry): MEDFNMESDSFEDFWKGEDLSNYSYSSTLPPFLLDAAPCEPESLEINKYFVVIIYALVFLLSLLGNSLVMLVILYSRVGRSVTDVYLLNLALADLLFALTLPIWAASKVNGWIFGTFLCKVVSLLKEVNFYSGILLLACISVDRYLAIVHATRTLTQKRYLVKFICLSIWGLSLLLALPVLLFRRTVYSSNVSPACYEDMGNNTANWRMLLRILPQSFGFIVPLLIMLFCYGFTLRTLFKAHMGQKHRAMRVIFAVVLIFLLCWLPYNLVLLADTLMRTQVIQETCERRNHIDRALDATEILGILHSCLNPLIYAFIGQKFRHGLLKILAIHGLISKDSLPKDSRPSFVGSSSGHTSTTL
T1 sequence (P08912 whole entry): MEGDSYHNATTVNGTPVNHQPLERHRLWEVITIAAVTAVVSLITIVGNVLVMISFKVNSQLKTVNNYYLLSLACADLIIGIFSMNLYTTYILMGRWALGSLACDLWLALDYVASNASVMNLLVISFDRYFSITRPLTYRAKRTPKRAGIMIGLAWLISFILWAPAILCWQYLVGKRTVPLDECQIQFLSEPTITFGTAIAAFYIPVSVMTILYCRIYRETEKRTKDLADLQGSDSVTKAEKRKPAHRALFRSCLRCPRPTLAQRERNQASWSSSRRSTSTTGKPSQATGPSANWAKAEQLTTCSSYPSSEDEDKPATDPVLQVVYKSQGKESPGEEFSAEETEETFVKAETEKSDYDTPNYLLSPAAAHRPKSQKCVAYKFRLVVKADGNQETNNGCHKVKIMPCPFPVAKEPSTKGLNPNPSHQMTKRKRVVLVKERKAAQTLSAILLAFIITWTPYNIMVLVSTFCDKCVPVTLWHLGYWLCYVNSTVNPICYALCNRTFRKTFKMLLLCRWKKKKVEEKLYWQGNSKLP
T3 sequence (P48146 whole entry): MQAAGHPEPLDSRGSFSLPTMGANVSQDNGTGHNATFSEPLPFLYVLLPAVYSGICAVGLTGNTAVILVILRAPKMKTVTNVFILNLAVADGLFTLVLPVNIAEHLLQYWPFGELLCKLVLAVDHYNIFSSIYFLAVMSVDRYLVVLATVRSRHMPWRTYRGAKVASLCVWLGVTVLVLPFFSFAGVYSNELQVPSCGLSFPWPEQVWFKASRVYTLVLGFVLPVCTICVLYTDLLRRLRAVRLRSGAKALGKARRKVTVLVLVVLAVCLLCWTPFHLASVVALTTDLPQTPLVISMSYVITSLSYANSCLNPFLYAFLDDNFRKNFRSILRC

Compound: CCOc1cccc2cc(C(C)NCC3(O)CCCCC3)oc12 (stereo not shown) [O4LE6]
- Fold of Basal (320 non-olfactory GPCRs [1]): 0.9113 and 1.052 and 0.8596 and 0.9753
- Fold of Basal (320 non-olfactory GPCRs [2]): 1.166 and 1.131 and 0.9959 and 1.015
- Fold of Basal (320 non-olfactory GPCRs [3]): 2.191 and 1.736 and 1.097 and 1.536
- GPCRome agonism screen response (320 non-olfactory GPCRs [4]): 0.5262 and 0.8272 and 1.363 and 1.562
